Eleven compounds from patent US4156724A, “N-acylamino-alpha-arylacetamido cephalosporins and antibacterial compositions and methods containing them” (Sumitomo Chemical Company, Limited, priority 1974, dated 1979) can be followed below.

SMILES strings stand for the structures. ≈ marks a conversion by molar mass, not a printed value.

What all share (assay type): cell-based
One assay relates to Escherichia coli NIHJ. The assay is described as follows: Minimum Inhibitory Concentration, Escherichia coli NIHJ. To be noted: Escherichia coli NIHJ; read-out: Minimum Inhibitory Concentration. Here is the method:
(§1) anti-microbial activity tests were carried out on the compounds obtained in the Examples.

Assay [1] deals with Pseudomonas aeruginosa 104. The assay is described as follows: Minimum Inhibitory Concentration, Pseudomonas aeruginosa 104. To be noted: Pseudomonas aeruginosa 104; read-out: Minimum Inhibitory Concentration. Here is the method: as §1
For assay [2], the system named is Staphylococcus aureus FS 289. The assay is described as follows: Minimum Inhibitory Concentration, Staphylococcus aureus FS 289. To be noted: FS289; Staphylococcus aureus FS 289, strain resistant to penicillin; read-out: Minimum Inhibitory Concentration. The method, then: as §1
*Staphylococcus aureus FS 289: strain resistant to penicillin

In another assay the test system is Proteus vulgaris HX 19. The assay is described as follows: Minimum Inhibitory Concentration, Proteus vulgaris HX 19. To be noted: HX19; Proteus vulgaris HX 19; read-out: Minimum Inhibitory Concentration. The method, then:
as §1

Assay [3] deals with Enterobacter aerogeneus No. 75. The assay is described as follows: Minimum Inhibitory Concentration, Enterobacter aerogeneus No. 75. To be noted: Enterobacter aerogeneus No. 75; read-out: Minimum Inhibitory Concentration. The method, then: as §1
In assay [4] the test system is Staphylococcus aureus 209 P. Nature of the assay: Minimum Inhibitory Concentration, Staphylococcus aureus 209 P. To be noted: Staphylococcus aureus 209 P; read-out: Minimum Inhibitory Concentration. Here is the method: as §1
For a further assay, the system named is Serratia No. 72. The assay is described as follows: Minimum Inhibitory Concentration, Serratia No. 72. The method, then: as §1
In assay [5] the test system is Klebsiella pneumoniae 602. The assay is described as follows: Minimum Inhibitory Concentration, Klebsiella pneumoniae 602. To be noted: Klebsiella pneumoniae, 602, Klebsiella pneumoniae 602; read-out: Minimum Inhibitory Concentration. The method, then:
as §1

Take `CSc1ncc2c(O)c(C(=O)NC(C(=O)NC3C(=O)N4C(C(=O)O)=C(CSc5nnnn5C)CSC34)c3cccc(O)c3)cnc2n1` (stereo not shown) [Example 162]: the MIC is 12.5 mg/L (≈ 17.9 µM) in the assay with Escherichia coli NIHJ; 6.25 mg/L (≈ 8.97 µM) in assay [1]; 12.5 mg/L (≈ 17.9 µM) in assay [2]; 0.78 mg/L (≈ 1.12 µM) with Proteus vulgaris HX 19; 25 mg/L (≈ 35.9 µM) in assay [3]; 1.56 mg/L (≈ 2.24 µM) in assay [4]. Also, the MIC stood at 50 mg/L (≈ 71.8 µM) against Serratia No. 72 and 6.25 mg/L (≈ 8.97 µM) in assay [5].

On to `Cn1nnnc1SCC1=C(C(=O)O)N2C(=O)C(NC(=O)C(NC(=O)c3cnc4nc(N5CCNCC5)ncc4c3O)c3ccc(O)cc3)C2SC1` (stereo not shown) [Example 163], for which the MIC was 12.5 mg/L (≈ 17 µM) in the assay with Escherichia coli NIHJ; 6.25 mg/L (≈ 8.51 µM) in assay [1]; 12.5 mg/L (≈ 17 µM) in assay [2]; 0.39 mg/L (≈ 0.531 µM) with Proteus vulgaris HX 19; 25 mg/L (≈ 34 µM) in assay [3]; 1.56 mg/L (≈ 2.12 µM) in assay [4]. Further, the figures for the MIC (with Serratia No. 72; in assay [5]) were 50 mg/L (≈ 68 µM) and 6.25 mg/L (≈ 8.51 µM), respectively.

On to `COc1ccc2ncc(C(=O)NC(C(=O)NC3C(=O)N4C(C(=O)O)=C(CSc5nnnn5C)CSC34)c3cccc(O)c3)c(O)c2n1` (stereo not shown) [Example 164], for which the MIC was determined as 3.13 mg/L (≈ 4.6 µM) in the assay on Escherichia coli NIHJ; 3.13 mg/L (≈ 4.6 µM) in assay [1]; 6.25 mg/L (≈ 9.2 µM) in assay [2]; 0.2 mg/L (≈ 0.294 µM) with Proteus vulgaris HX 19; 3.13 mg/L (≈ 4.6 µM) in assay [3]; 0.78 mg/L (≈ 1.15 µM) in assay [4]. For the same compound, the MIC against Serratia No. 72 was 12.5 mg/L (≈ 18.4 µM); in assay [5], 1.56 mg/L (≈ 2.3 µM).

As to `COc1ccc2ncc(C(=O)NC(C(=O)NC3C(=O)N4C(C(=O)O)=C(CSc5nnc(CO)s5)CSC34)c3ccc(O)cc3)c(O)c2n1` (stereo not shown) [Example 165], the MIC was determined as 3.13 mg/L (≈ 4.4 µM) in the assay with Escherichia coli NIHJ; 3.13 mg/L (≈ 4.4 µM) in assay [1]; 6.25 mg/L (≈ 8.78 µM) in assay [2]; 0.2 mg/L (≈ 0.281 µM) with Proteus vulgaris HX 19; 6.25 mg/L (≈ 8.78 µM) in assay [3]; 0.78 mg/L (≈ 1.1 µM) in assay [4]. The MIC with Serratia No. 72 is 12.5 mg/L (≈ 17.6 µM); in assay [5] it was 3.13 mg/L (≈ 4.4 µM).

With `CN(C)c1ccc2ncc(C(=O)NC(C(=O)NC3C(=O)N4C(C(=O)O)=C(CSc5nnnn5C)CSC34)c3ccc(O)cc3)c(O)c2n1` (stereo not shown) [Example 166], the MIC worked out at 3.13 mg/L (≈ 4.52 µM) in the assay on Escherichia coli NIHJ; 3.13 mg/L (≈ 4.52 µM) in assay [1]; 6.25 mg/L (≈ 9.02 µM) in assay [2]; 0.2 mg/L (≈ 0.289 µM) with Proteus vulgaris HX 19; 3.13 mg/L (≈ 4.52 µM) in assay [3]; 0.78 mg/L (≈ 1.13 µM) in assay [4]. In addition, the figures for the MIC (in the assay with Serratia No. 72; in assay [5]) were 12.5 mg/L (≈ 18 µM) and 1.56 mg/L (≈ 2.25 µM), respectively.

Turning to `Cn1nnnc1SCC1=C(C(=O)O)N2C(=O)C(NC(=O)C(NC(=O)c3cnc4cccnc4c3O)c3ccc(O)c(O)c3)C2SC1` (stereo not shown) [Example 167], the MIC worked out at 1.56 mg/L (≈ 2.34 µM) with Escherichia coli NIHJ; 3.13 mg/L (≈ 4.7 µM) in assay [1]; 6.25 mg/L (≈ 9.39 µM) in assay [2]; 0.2 mg/L (≈ 0.3 µM) with Proteus vulgaris HX 19; 3.13 mg/L (≈ 4.7 µM) in assay [3]; 1.56 mg/L (≈ 2.34 µM) in assay [4]. Also, the figures for the MIC (in the assay with Serratia No. 72; in assay [5]) were 12.5 mg/L (≈ 18.8 µM) and 1.56 mg/L (≈ 2.34 µM), respectively.

For `Cc1ccc2c(O)c(C(=O)NC(C(=O)NC3C(=O)N4C(C(=O)O)=C(CSc5nnc(C)s5)CSC34)c3cccc(O)c3)cnc2n1` (stereo not shown) [Example 168], the MIC in the assay on Escherichia coli NIHJ was found to be 12.5 mg/L (≈ 18.4 µM); in assay [1], 12.5 mg/L (≈ 18.4 µM); in assay [2], 12.5 mg/L (≈ 18.4 µM); in the assay with Proteus vulgaris HX 19, 0.78 mg/L (≈ 1.15 µM); in assay [3], 25 mg/L (≈ 36.8 µM); in assay [4], 1.56 mg/L (≈ 2.29 µM). The MIC with Serratia No. 72 came to 50 mg/L (≈ 73.6 µM); in assay [5] it was 6.25 mg/L (≈ 9.19 µM).

As to `O=C(O)C1=C(CSc2cnn[nH]2)CSC2C(NC(=O)C(NC(=O)c3cnc4cccnc4c3O)c3cccc(O)c3)C(=O)N12` (stereo not shown) [Example 169], the MIC in the assay on Escherichia coli NIHJ is 3.13 mg/L (≈ 4.93 µM); in assay [1], 3.13 mg/L (≈ 4.93 µM); in assay [2], 6.25 mg/L (≈ 9.85 µM); with Proteus vulgaris HX 19 it was 0.1 mg/L (≈ 0.158 µM); in assay [3], 3.13 mg/L (≈ 4.93 µM); in assay [4], 0.78 mg/L (≈ 1.23 µM). In addition, the MIC in the assay on Serratia No. 72 came out at 25 mg/L (≈ 39.4 µM); in assay [5], 1.56 mg/L (≈ 2.46 µM).

Regarding `O=C(O)C1=C(CSc2ccc(O)nn2)CSC2C(NC(=O)C(NC(=O)c3cnc4cccnc4c3O)c3ccc(O)cc3)C(=O)N12` (stereo not shown) [Example 170], the MIC in the assay with Escherichia coli NIHJ was 6.25 mg/L (≈ 9.45 µM); in assay [1] it was 3.13 mg/L (≈ 4.73 µM); in assay [2], 6.25 mg/L (≈ 9.45 µM); in the assay with Proteus vulgaris HX 19, 0.1 mg/L (≈ 0.151 µM); in assay [3], 6.25 mg/L (≈ 9.45 µM); in assay [4], 0.78 mg/L (≈ 1.18 µM). The MIC amounted to 25 mg/L (≈ 37.8 µM) in the assay with Serratia No. 72 and 1.56 mg/L (≈ 2.36 µM) in assay [5].

As for `O=C(O)C1=C(CSc2nncs2)CSC2C(NC(=O)C(NC(=O)c3cnc4cccnc4c3O)c3ccc(O)c(O)c3)C(=O)N12` (stereo not shown) [Example 171], the MIC in the assay on Escherichia coli NIHJ came to 3.13 mg/L (≈ 4.69 µM); in assay [1] it was 3.13 mg/L (≈ 4.69 µM); in assay [2] it was 12.5 mg/L (≈ 18.7 µM); in the assay with Proteus vulgaris HX 19, 0.2 mg/L (≈ 0.3 µM); in assay [3], 3.13 mg/L (≈ 4.69 µM); in assay [4], 1.56 mg/L (≈ 2.34 µM). The MIC came out at 25 mg/L (≈ 37.4 µM) with Serratia No. 72 and 1.56 mg/L (≈ 2.34 µM) in assay [5].

With `COc1cnc2c(O)c(C(=O)NC(C(=O)NC3C(=O)N4C(C(=O)O)=C(CSc5nnnn5C)CSC34)c3ccc(O)cc3)cnc2n1` (stereo not shown) [Example 172], the MIC with Escherichia coli NIHJ was determined as 3.13 mg/L (≈ 4.6 µM); in assay [1] it was 6.25 mg/L (≈ 9.18 µM); in assay [2], 12.5 mg/L (≈ 18.4 µM); with Proteus vulgaris HX 19, 0.78 mg/L (≈ 1.15 µM); in assay [3] it was 6.25 mg/L (≈ 9.18 µM); in assay [4], 0.78 mg/L (≈ 1.15 µM). In addition, the MIC against Serratia No. 72 came to 25 mg/L (≈ 36.7 µM); in assay [5], 3.13 mg/L (≈ 4.6 µM).
